{
  "source": "patent US10114018B2",
  "about": "“IL-2 peptide derivatives, and uses thereof for the diagnosis and treatment of an autoimmune disease” (INSERM (INSTITUT NATIONAL DE LA SANTÉ ET DE LA RECHERCHE …, priority 2014, dated 2018)",
  "tested_on": "PBMCs from HD or T1D patients",
  "assay": "Quantification of IL-2 specific T cells by IFN-g ELISPOT",
  "format": "cell-based, human",
  "conditions": "peptides 10 μM/each; T1D patients (n=13) vs HD (n=14) PBMCs",
  "method": "IFN-g production by PBMCs from HD (n=14, closed circles) or T1D patients (n=13, open circles) was quantified by ELISPOT after stimulation with hIL-2 or Proleukin (Pro) peptides (10 μM/each) that gave a positive response in the initial pool screening, intracellular IA-2, adenovirus lysate (AdV) or PHA.",
  "data": [
    {"sequence": "EFLNRWITFSQSIIS (Synthetic fragment) [Pro116-130]", "values": [
      {"measurement": "IFN-g production by PBMCs (ELISPOT, IFN-g spot-forming cells/10^6 PBMCs)", "value": "can induce IFN-g production in a significantly higher frequency of T1D PBMCs compared to HD PBMCs"}
    ]}
  ]
}
